Data as given in PubChem BioAssay AID1963838 (Molecular Pharmacology Branch, DTP, NCI, 2024).

System: 855422-203-R-J1-PDC complex spheroid viability
Experiment: Anticancer human tumor 855422-203-R-J1-PDC patient-derived bladder carcinoma cell line growth inhibition [POLQ]
Conditions: for IC50: curve of first compound; for viability, T/C: stronger effect = lower value; active means viability on the fitted dose curve at most 10% of control; inactive means the rest
In short: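 Complex spheroid viability model combining PDC tumour cells with endothelial (HUVEC) and MSC stromal cells. Novobiocin, ART-558 or RP6685 were tested singly and in combination with standard and investigational anticancer drugs. Each was titrated in half-log steps from near clinical Cmax, or from 10 microM where Cmax was unknown.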

[1] = second compound 0.0316 µM, first compound 0.0316 µM
[2] = second compound 0.0316 µM, first compound 0.1 µM
[3] = second compound 0.0316 µM, first compound 0.316 µM
[4] = second compound 0.0316 µM, first compound 1 µM
[5] = second compound 0.0316 µM, first compound 3.16 µM
[6] = second compound 0.0316 µM, first compound 10 µM
[7] = second compound 0.1 µM, first compound 0.0316 µM
[8] = second compound 0.1 µM, first compound 0.1 µM
[9] = second compound 0.1 µM, first compound 0.316 µM
[10] = second compound 0.1 µM, first compound 1 µM
[11] = second compound 0.1 µM, first compound 3.16 µM
[12] = second compound 0.1 µM, first compound 10 µM
[13] = second compound 0.316 µM, first compound 0.0316 µM
[14] = second compound 0.316 µM, first compound 0.1 µM
[15] = second compound 0.316 µM, first compound 0.316 µM
[16] = second compound 0.316 µM, first compound 1 µM
[17] = second compound 0.316 µM, first compound 3.16 µM
[18] = second compound 0.316 µM, first compound 10 µM
[19] = second compound 1 µM, first compound 0.0316 µM
[20] = second compound 1 µM, first compound 0.1 µM
[21] = second compound 1 µM, first compound 0.316 µM
[22] = second compound 1 µM, first compound 1 µM
[23] = second compound 1 µM, first compound 3.16 µM
[24] = second compound 1 µM, first compound 10 µM
[25] = second compound 3.16 µM, first compound 0.0316 µM
[26] = second compound 3.16 µM, first compound 0.1 µM
[27] = second compound 3.16 µM, first compound 0.316 µM
[28] = second compound 3.16 µM, first compound 1 µM
[29] = second compound 3.16 µM, first compound 3.16 µM
[30] = second compound 3.16 µM, first compound 10 µM
[31] = second compound 10 µM, first compound 0.0316 µM
[32] = second compound 10 µM, first compound 0.1 µM
[33] = second compound 10 µM, first compound 0.316 µM
[34] = second compound 10 µM, first compound 1 µM
[35] = second compound 10 µM, first compound 3.16 µM
[36] = second compound 10 µM, first compound 10 µM
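Further: spheroids exposed to compounds for seven days before readout.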

CC(=O)O[C@H]1C(=O)[C@@]2(C)[C@H]([C@H](OC(=O)c3ccccc3)[C@]3(O)C[C@H](OC(=O)[C@H](O)[C@@H](NC(=O)c4ccccc4)c4ccccc4)C(C)=C1C3(C)C)[C@]1(OC(C)=O)CO[C@@H]1C[C@@H]2O + Nc1ccc(C#CCN(C(=O)Cc2ncc(C(F)(F)F)cc2C(F)(F)F)c2ccc(F)cc2)nn1
inactive: viability, T/C (second compound 0.1 µM, first compound 0.00949 µM) 12.1% | viability, T/C (second compound 0.316 µM, first compound 0.00949 µM) 10.2% | viability, T/C (second compound 3.16 µM, first compound 0.00949 µM) 14.2% | viability, T/C (second compound 3.16 µM, first compound 0.03 µM) 8.33% | viability, T/C (second compound 3.16 µM, first compound 0.0949 µM) 9.73% | viability, T/C (second compound 3.16 µM, first compound 0.3 µM) 9.4% | viability, T/C (second compound 3.16 µM, first compound 0.949 µM) 12.7% | viability, T/C (second compound 3.16 µM, first compound 3 µM) 10.1% | viability, T/C (second compound 10 µM, first compound 0.00949 µM) 12.2% | viability, T/C (second compound 10 µM, first compound 0.03 µM) 10.5%
< 0.00949 µM: IC50 (second compound 0.0316 µM) | IC50 (second compound 0.1 µM) | IC50 (second compound 0.316 µM) | IC50 (second compound 1 µM) | IC50 (second compound 3.16 µM) | IC50 (second compound 10 µM)
active: viability, T/C (second compound 0.0316 µM, first compound 0.00949 µM) 9.1% | viability, T/C (second compound 0.0316 µM, first compound 0.03 µM) 8.18% | viability, T/C (second compound 0.0316 µM, first compound 0.0949 µM) 10.3% | viability, T/C (second compound 0.0316 µM, first compound 0.3 µM) 9.92% | viability, T/C (second compound 0.0316 µM, first compound 0.949 µM) 7.22% | viability, T/C (second compound 0.0316 µM, first compound 3 µM) 9.23% | viability, T/C (second compound 0.1 µM, first compound 0.03 µM) 8.86% | viability, T/C (second compound 0.1 µM, first compound 0.0949 µM) 8.29% | viability, T/C (second compound 0.1 µM, first compound 0.3 µM) 9.07% | viability, T/C (second compound 0.1 µM, first compound 0.949 µM) 6.61% | viability, T/C (second compound 0.1 µM, first compound 3 µM) 8.93% | viability, T/C (second compound 0.316 µM, first compound 0.03 µM) 10% | viability, T/C (second compound 0.316 µM, first compound 0.0949 µM) 7.73% | viability, T/C (second compound 0.316 µM, first compound 0.3 µM) 7.49% | viability, T/C (second compound 0.316 µM, first compound 0.949 µM) 7.31% | viability, T/C (second compound 0.316 µM, first compound 3 µM) 7.76% | viability, T/C (second compound 1 µM, first compound 0.00949 µM) 9.77% | viability, T/C (second compound 1 µM, first compound 0.03 µM) 10.3% | viability, T/C (second compound 1 µM, first compound 0.0949 µM) 7.55% | viability, T/C (second compound 1 µM, first compound 0.3 µM) 9.06% | viability, T/C (second compound 1 µM, first compound 0.949 µM) 7.76% | viability, T/C (second compound 1 µM, first compound 3 µM) 9.17% | viability, T/C (second compound 10 µM, first compound 0.0949 µM) 11.7% | viability, T/C (second compound 10 µM, first compound 0.3 µM) 9.8% | viability, T/C (second compound 10 µM, first compound 0.949 µM) 7.89% | viability, T/C (second compound 10 µM, first compound 3 µM) 9.4%

Nc1ccn(C2OC(CO)C(O)C2(F)F)c(=O)n1 (stereo unspecified) + Nc1ccc(C#CCN(C(=O)Cc2ncc(C(F)(F)F)cc2C(F)(F)F)c2ccc(F)cc2)nn1
0.0823 µM: IC50 (second compound 0.316 µM)
0.447 µM: IC50 (second compound 10 µM)
0.207 µM: IC50 (second compound 3.16 µM)
0.0912 µM: IC50 (second compound 1 µM)
0.0625 µM: IC50 (second compound 0.1 µM)
0.0619 µM: IC50 (second compound 0.0316 µM)
inactive: viability, T/C [1] 93.6% | viability, T/C [2] 18.9% | viability, T/C [3] 17.6% | viability, T/C [4] 13.8% | viability, T/C [5] 11% | viability, T/C [6] 6.83% | viability, T/C [7] 99.3% | viability, T/C [8] 15.9% | viability, T/C [9] 18.2% | viability, T/C [10] 14.1% | viability, T/C [11] 12.3% | viability, T/C [12] 9.34% | viability, T/C [13] 148% | viability, T/C [14] 29.9% | viability, T/C [15] 16% | viability, T/C [16] 18.6% | viability, T/C [17] 11.3% | viability, T/C [18] 8.21% | viability, T/C [19] 136% | viability, T/C [20] 42.2% | viability, T/C [21] 16.8% | viability, T/C [22] 14.5% | viability, T/C [23] 11.3% | viability, T/C [24] 10.8% | viability, T/C [25] 118% | viability, T/C [26] 103% | viability, T/C [27] 19.4% | viability, T/C [28] 16.3% | viability, T/C [29] 14.8% | viability, T/C [30] 11.8% | viability, T/C [31] 105% | viability, T/C [32] 210% | viability, T/C [33] 63.6% | viability, T/C [34] 23% | viability, T/C [35] 18.2% | viability, T/C [36] 14.1%

O=c1[nH]cc(F)c(=O)[nH]1 + Nc1ccc(C#CCN(C(=O)Cc2ncc(C(F)(F)F)cc2C(F)(F)F)c2ccc(F)cc2)nn1
3.06 µM: IC50 (second compound 3.16 µM)
inactive: viability, T/C [1] 118% | viability, T/C [2] 110% | viability, T/C [3] 160% | viability, T/C [4] 65.3% | viability, T/C [5] 47.4% | viability, T/C [6] 43.9% | viability, T/C [7] 90.8% | viability, T/C [8] 111% | viability, T/C [9] 142% | viability, T/C [10] 66.6% | viability, T/C [11] 46.6% | viability, T/C [12] 37.1% | viability, T/C [13] 118% | viability, T/C [14] 122% | viability, T/C [15] 124% | viability, T/C [16] 63.2% | viability, T/C [17] 54% | viability, T/C [18] 44.8% | viability, T/C [19] 95.3% | viability, T/C [20] 112% | viability, T/C [21] 99.6% | viability, T/C [22] 68.5% | viability, T/C [23] 46.2% | viability, T/C [24] 40% | viability, T/C [25] 103% | viability, T/C [26] 107% | viability, T/C [27] 104% | viability, T/C [28] 60.6% | viability, T/C [29] 53.1% | viability, T/C [30] 46.2% | viability, T/C [31] 96.9% | viability, T/C [32] 105% | viability, T/C [33] 99.9% | viability, T/C [34] 66.8% | viability, T/C [35] 53.1% | viability, T/C [36] 40.8%
3 µM: IC50 (second compound 0.316 µM)
2.16 µM: IC50 (second compound 0.1 µM)
2.42 µM: IC50 (second compound 1 µM)
2.45 µM: IC50 (second compound 0.0316 µM)
2.75 µM: IC50 (second compound 10 µM)
